Where “and” joins values, the source holds several entries; their conditions need not be identical. Equal values may be shown once.
Experiments:
[1] = target: human D-amino acid oxidase (hDAAO) (Homo sapiens, UniProt P14920); assay: In vitro measurement of human D-amino acid oxidase (hDAAO) activity, D-Serine substrate, Amplex Red fluorescence; format: biochemical
[2] = Log P, n-octanol/water partition coefficient, HPLC; format: physicochemical
Protocol: The sample compounds tested in the log P experiments included enriched tannic acid (prepared by the enrichment method 10 of U.S. Ser. No. 10/105,378), compounds 21, 24, 27, 46, and 56. First, n-Octanol and water was saturated with each other to achieve partition equilibrium and the two phases were separated for further use. Sample compounds were dissolved in water and n-octanol phase, respectively. Both phases were mixed by vertical rotation movement. After the water and n-octal phases reached equilibrium state, both phases were analyzed to determine the concentrations of the sample compounds for the determination of log P values. All samples were performed in a Shimadzu CBM-20A FfPLC system. The chromatographic separation was carried out on a 5 μm, Kinetex C18 100 Å LC column (100×4.6 mm). The mobile phase was 0.1% formic acid in water and acetonitrile/Methanol set as gradient. Flow rate used was 1.2 mL/min. Column was at room temperature 20±5° C.
The partition coefficient abbreviated P is calculated based on the concentration in n-octanol divided by the concentration in water. The formula of log P is shown below: […]

Chain of human D-amino acid oxidase (hDAAO) (P14920 whole entry): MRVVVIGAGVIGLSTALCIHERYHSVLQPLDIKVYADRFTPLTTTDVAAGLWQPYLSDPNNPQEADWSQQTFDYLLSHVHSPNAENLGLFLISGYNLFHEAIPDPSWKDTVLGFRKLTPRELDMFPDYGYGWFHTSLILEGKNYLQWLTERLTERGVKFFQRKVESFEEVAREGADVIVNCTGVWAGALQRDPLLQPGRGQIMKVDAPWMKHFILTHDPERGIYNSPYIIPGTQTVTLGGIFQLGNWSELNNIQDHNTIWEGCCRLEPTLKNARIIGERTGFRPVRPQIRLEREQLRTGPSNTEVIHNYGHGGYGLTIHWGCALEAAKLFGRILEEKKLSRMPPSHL

## O=C(Oc1cccc(OC(=O)c2cc(O)c(O)c(OC(=O)c3cc(O)c(O)c(OC(=O)c4cc(O)c(O)c(OC(=O)c5cc(O)c(O)c(OC(=O)c6cc(O)c(O)c(O)c6)c5)c4)c3)c2)c1)c1cc(O)c(O)c(OC(=O)c2cc(O)c(O)c(OC(=O)c3cc(O)c(O)c(OC(=O)c4cc(O)c(O)c(OC(=O)c5cc(O)c(O)c(O)c5)c4)c3)c2)c1 [Compound 51, 1,3-phenylene bis(3-((3-((3-((3,4-dihydroxy-5-((3,4,5-trihydroxybenzoyl)oxy)benzoyl)oxy)-4,5-dihydroxybenzoyl)oxy)-4,5-dihydroxybenzoyl)oxy)-4,5-dihydroxybenzoate)]
[1]
  IC50: 8.58 nM and 9 nM

## O=C(Oc1cc(OC(=O)c2cc(O)c(O)c(OC(=O)c3cc(O)c(O)c(OC(=O)c4cc(O)c(O)c(OC(=O)c5cc(O)c(O)c(OC(=O)c6cc(O)c(O)c(OC(=O)c7cc(O)c(O)c(OC(=O)c8cc(O)c(O)c(O)c8)c7)c6)c5)c4)c3)c2)cc(OC(=O)c2cc(O)c(O)c(OC(=O)c3cc(O)c(O)c(OC(=O)c4cc(O)c(O)c(OC(=O)c5cc(O)c(O)c(OC(=O)c6cc(O)c(O)c(OC(=O)c7cc(O)c(O)c(OC(=O)c8cc(O)c(O)c(O)c8)c7)c6)c5)c4)c3)c2)c1)c1cc(O)c(O)c(OC(=O)c2cc(O)c(O)c(OC(=O)c3cc(O)c(O)c(OC(=O)c4cc(O)c(O)c(OC(=O)c5cc(O)c(O)c(OC(=O)c6cc(O)c(O)c(OC(=O)c7cc(O)c(O)c(O)c7)c6)c5)c4)c3)c2)c1 [Compound 58, benzene-1,3,5-triyl tris(3-((3-((3-((3-((3-((3,4-dihydroxy-5-((3,4,5-trihydroxybenzoyl)oxy)benzoyl)oxy)-4,5-dihydroxybenzoyl)oxy)-4,5-dihydroxybenzoyl)oxy)-4,5-dihydroxybenzoyl)oxy)-4,5-dihydroxybenzoyl)oxy)-4,5-dihydroxybenzoate)]
[1]
  IC50: 2.71 nM and 3 nM

## O=C(OCC1OC(OC(=O)c2cc(O)c(O)c(OC(=O)c3cc(O)c(O)c(O)c3)c2)C(OC(=O)c2cc(O)c(O)c(OC(=O)c3cc(O)c(O)c(O)c3)c2)C(OC(=O)c2cc(O)c(O)c(OC(=O)c3cc(O)c(O)c(O)c3)c2)C1OC(=O)c1cc(O)c(O)c(OC(=O)c2cc(O)c(O)c(O)c2)c1)c1cc(O)c(O)c(OC(=O)c2cc(O)c(O)c(O)c2)c1 (stereo not shown) [Compound 103]
[1]
  IC50: 19.4 nM and 20 nM

## O=C(Oc1cccc(OC(=O)c2cc(O)c(O)c(OC(=O)c3cc(O)c(O)c(OC(=O)c4cc(O)c(O)c(OC(=O)c5cc(O)c(O)c(OC(=O)c6cc(O)c(O)c(OC(=O)c7cc(O)c(O)c(OC(=O)c8cc(O)c(O)c(O)c8)c7)c6)c5)c4)c3)c2)c1)c1cc(O)c(O)c(OC(=O)c2cc(O)c(O)c(OC(=O)c3cc(O)c(O)c(OC(=O)c4cc(O)c(O)c(OC(=O)c5cc(O)c(O)c(OC(=O)c6cc(O)c(O)c(OC(=O)c7cc(O)c(O)c(O)c7)c6)c5)c4)c3)c2)c1 [Compound 53, 1,3-phenylene bis(3-((3-((3-((3-((3-((3,4-dihydroxy-5-((3,4,5-trihydroxybenzoyl)oxy)benzoyl)oxy)-4,5-dihydroxybenzoyl)oxy)-4,5-dihydroxybenzoyl)oxy)-4,5-dihydroxybenzoyl)oxy)-4,5-dihydroxybenzoyl)oxy)-4,5-dihydroxybenzoate)]
[1]
  IC50: 5.8 nM and 6 nM

## O=C(Oc1cc(OC(=O)c2cc(O)c(O)c(OC(=O)c3cc(O)c(O)c(OC(=O)c4cc(O)c(O)c(OC(=O)c5cc(O)c(O)c(OC(=O)c6cc(O)c(O)c(O)c6)c5)c4)c3)c2)cc(OC(=O)c2cc(O)c(O)c(OC(=O)c3cc(O)c(O)c(OC(=O)c4cc(O)c(O)c(OC(=O)c5cc(O)c(O)c(OC(=O)c6cc(O)c(O)c(O)c6)c5)c4)c3)c2)c1)c1cc(O)c(O)c(OC(=O)c2cc(O)c(O)c(OC(=O)c3cc(O)c(O)c(OC(=O)c4cc(O)c(O)c(OC(=O)c5cc(O)c(O)c(O)c5)c4)c3)c2)c1 [Compound 56, benzene-1,3,5-triyl tris(3-((3-((3-((3,4-dihydroxy-5-((3,4,5-trihydroxybenzoyl)oxy)benzoyl)oxy)-4,5-dihydroxybenzoyl)oxy)-4,5-dihydroxybenzoyl)oxy)-4,5-dihydroxybenzoate)]
[2]
  logP: 1.92
[1]
  IC50: 5.4 nM and 5 nM

## O=C(OC[C@H]1O[C@@H](OC(=O)c2cc(O)c(O)c(O)c2)[C@H](OC(=O)c2cc(O)c(O)c(O)c2)[C@@H](OC(=O)c2cc(O)c(O)c(O)c2)[C@@H]1OC(=O)c1cc(O)c(O)c(O)c1)c1cc(O)c(O)c(O)c1 [Compound 102]
[1]
  IC50: 54.2 nM and 53 nM

## O=C(Oc1ccccc1)c1cc(O)c(O)c(OC(=O)c2cc(O)c(O)c(OC(=O)c3cc(O)c(O)c(OC(=O)c4cc(O)c(O)c(OC(=O)c5cc(O)c(O)c(OC(=O)c6cc(O)c(O)c(OC(=O)c7cc(O)c(O)c(O)c7)c6)c5)c4)c3)c2)c1 [Compound 48, 5-((5-((5-((5-((5-((2,3-dihydroxy-5-(phenoxycarbonyl)phenoxy)carbonyl)-2,3-dihydroxyphenoxy)carbonyl)-2,3-dihydroxyphenoxy)carbonyl)-2,3-dihydroxyphenoxy)carbonyl)-2,3-dihydroxyphenoxy)carbonyl)-2,3-dihydroxyphenyl 3,4,5-trihydroxybenzoate]
[1]
  IC50: 17.3 nM and 17 nM

## O=C(OC[C@H]1O[C@H](OC(=O)c2cc(O)c(O)c(O)c2)[C@H](OC(=O)c2cc(O)c(O)c(O)c2)[C@@H](OC(=O)c2cc(O)c(O)c(O)c2)[C@@H]1OC(=O)c1cc(O)c(O)c(O)c1)c1cc(O)c(O)c(O)c1 [Compound 101]
[1]
  IC50: 53.2 nM and 51 nM

## O=C(OC[C@H]1O[C@@H](OC(=O)c2cc(O)c(O)c(OC(=O)c3cc(O)c(O)c(OC(=O)c4cc(O)c(O)c(O)c4)c3)c2)[C@H](OC(=O)c2cc(O)c(O)c(OC(=O)c3cc(O)c(O)c(OC(=O)c4cc(O)c(O)c(O)c4)c3)c2)[C@@H](OC(=O)c2cc(O)c(O)c(OC(=O)c3cc(O)c(O)c(OC(=O)c4cc(O)c(O)c(O)c4)c3)c2)[C@@H]1OC(=O)c1cc(O)c(O)c(OC(=O)c2cc(O)c(O)c(OC(=O)c3cc(O)c(O)c(O)c3)c2)c1)c1cc(O)c(O)c(OC(=O)c2cc(O)c(O)c(OC(=O)c3cc(O)c(O)c(O)c3)c2)c1 [Compound 37, (2S,3R,4S,5R,6R)-6-(((3-((3,4-dihydroxy-5-((3,4,5-trihydroxybenzoyl)oxy)benzoyl)oxy)-4,5-dihydroxybenzoyl)oxy)methyl)tetrahydro-2H-pyran-2,3,4,5-tetrayl tetrakis(3-((3,4-dihydroxy-5-((3,4,5-trihydroxybenzoyl)oxy)benzoyl)oxy)-4,5-dihydroxybenzoate)]
[1]
  IC50: 11.8 nM and 12 nM

## O=C(OC[C@H]1O[C@H](OC(=O)c2cc(O)c(O)c(OC(=O)c3cc(O)c(O)c(O)c3)c2)[C@H](OC(=O)c2cc(O)c(O)c(OC(=O)c3cc(O)c(O)c(O)c3)c2)[C@@H](OC(=O)c2cc(O)c(O)c(OC(=O)c3cc(O)c(O)c(O)c3)c2)[C@@H]1OC(=O)c1cc(O)c(O)c(OC(=O)c2cc(O)c(O)c(O)c2)c1)c1cc(O)c(O)c(OC(=O)c2cc(O)c(O)c(O)c2)c1 [Compound 21, (2R,3R,4S,5R,6R)-6-(((3,4-dihydroxy-5-((3,4,5-trihydroxybenzoyl)oxy)benzoyl)oxy)methyl)tetrahydro-2H-pyran-2,3,4,5-tetrayl tetrakis(3,4-dihydroxy-5-((3,4,5-trihydroxybenzoyl)oxy)benzoate)]
[2]
  logP: 1.32
[1]
  IC50: 19.4 nM and 20 nM

## O=C(Oc1ccccc1)c1cc(O)c(O)c(OC(=O)c2cc(O)c(O)c(OC(=O)c3cc(O)c(O)c(OC(=O)c4cc(O)c(O)c(OC(=O)c5cc(O)c(O)c(O)c5)c4)c3)c2)c1 [Compound 46, 5-((5-((5-((2,3-dihydroxy-5-(phenoxycarbonyl)phenoxy)carbonyl)-2,3-dihydroxyphenoxy)carbonyl)-2,3-dihydroxyphenoxy)carbonyl)-2,3-dihydroxyphenyl 3,4,5-trihydroxybenzoate]
[2]
  logP: 2.02
[1]
  IC50: 24.6 nM and 24 nM

## O=C(OC[C@H]1O[C@H](OC(=O)c2cc(O)c(O)c(OC(=O)c3cc(O)c(O)c(OC(=O)c4cc(O)c(O)c(OC(=O)c5cc(O)c(O)c(O)c5)c4)c3)c2)[C@H](OC(=O)c2cc(O)c(O)c(OC(=O)c3cc(O)c(O)c(OC(=O)c4cc(O)c(O)c(OC(=O)c5cc(O)c(O)c(O)c5)c4)c3)c2)[C@@H](OC(=O)c2cc(O)c(O)c(OC(=O)c3cc(O)c(O)c(OC(=O)c4cc(O)c(O)c(OC(=O)c5cc(O)c(O)c(O)c5)c4)c3)c2)[C@@H]1OC(=O)c1cc(O)c(O)c(OC(=O)c2cc(O)c(O)c(OC(=O)c3cc(O)c(O)c(OC(=O)c4cc(O)c(O)c(O)c4)c3)c2)c1)c1cc(O)c(O)c(OC(=O)c2cc(O)c(O)c(OC(=O)c3cc(O)c(O)c(OC(=O)c4cc(O)c(O)c(O)c4)c3)c2)c1 [Compound 27, (2R,3R,4S,5R,6R)-6-(((3-((3,4-dihydroxy-5-((3,4-dihydroxy-5-((3,4,5-trihydroxybenzoyl)oxy)benzoyl)oxy)benzoyl)oxy)-4,5-dihydroxybenzoyl)oxy)methyl)tetrahydro-2H-pyran-2,3,4,5-tetrayl tetrakis(3-((3,4-dihydroxy-5-((3,4-dihydroxy-5-((3,4,5-trihydroxybenzoyl)oxy)benzoyl)oxy)benzoyl)oxy)-4,5-dihydroxybenzoate)]
[2]
  logP: 0.6
[1]
  IC50: 10.9 nM and 11 nM

From patent US20210214385A1, “INHIBITORS OF D-AMINO ACID OXIDASE AND USES THEREOF” (SyneuRx International (Taiwan) Corp., priority 2018, published 2021)
